Assay results as given in US12161612B2, “Methods and compositions for reducing symptoms of Parkinson's disease” (NeuroDerm, Ltd., priority 2023, dated 2024).

Tests used:
[1] = ND0612-005a/ND0612-005b plasma carbidopa levels after subcutaneous carbidopa doses; type: in vivo, human; conditions: 60 mg/ml levodopa with 7.5, 6 or 4 mg/ml carbidopa over 24 hours, 17.9, 26.9, 33.6 mg/24 h carbidopa
Protocol: In a separate clinical trial (ND0612-005a and ND0612-005b, open label design studies), the plasma carbidopa levels were tested in view of the subcutaneous administration of several carbidopa doses. Three formulations, comprising 60 mg/ml levodopa and (a) 7.5 mg/ml; (b) 6 mg/ml; or 4 mg/ml of carbidopa, were administered to three groups of subjects over the course of 24 hours, providing a total of 17.9 mg/24 h carbidopa to each subject in the first group, 26.9 mg/24 h carbidopa to each subject in the second group and 33.6 mg/24 h carbidopa to each subject in the third group.

[2] = ND0612-001 dose proportionality, 24 hour continuous subcutaneous infusion; type: in vivo, human; conditions: healthy male subjects; LD (6% w/w)/CD (1.4% w/w) composition, 24 hour subcutaneous infusion at 80-240 μl/h
Protocol: Subjects were administered with a composition comprising LD (6% w/w)/CD (1.4% w/w) by way of a 24 hour continuous infusion at varying infusion rates: • Group 1:80 μl/h • Group 2:120 μl/h • Group 3:160 μl/h • Group 4:200 μl/h • Group 5:240 μl/h
Several PK parameters were derived for both LD and CD in the dose proportionality assessment, including AUC (hr*ng/ml), Cmax (ng/ml), C15 (ng/ml), and C24 (ng/mL).

Structure (SMILES) | carbidopa Cmax dose proportionality [1] | dose proportionality of PK parameters (AUC, Cmax, C15, C24) [2]
C[C@@](Cc1ccc(O)c(O)c1)(NN)C(=O)O [CD, carbidopa] | showed clear dose proportionality | demonstrated dose proportionality
N[C@@H](Cc1ccc(O)c(O)c1)C(=O)O [LD, L-3,4-dihydroxyphenylalanine] |  | demonstrated dose proportionality
